Measurements from US11896589B2, “Diazinyl amino acridines and medical uses thereof” (MyCural Therapeutics AB, priority 2018, dated 2024).

Assays:
[1] = biological target: T1, MYC:MAX heterodimer (MYCbHLHZip, labelled MAXbHLHZip) (Homo sapiens, UniProt P01106); assay: Assay 1A MYC:MAX heterodimer MST assay; format: binding; settings: thermophoresis shift of 1 μM labelled MAXbHLHZip with 1 μM MYCbHLHZip
T1 construct: MYC:MAX heterodimer formation assay based on recombinant proteins
Method: FIG. 1: A) Microscale thermophoresis (MST) of fluorescently labeled MAX in a MYC:MAX heterodimer formation assay based on recombinant proteins. MST of labeled MAXbHLHZip after titration of Example 1 pre-incubated with 1 μM MYCbHLHZip, or with 1 μM MAXbHLHZip. Fluorescence intensity of labeled MAXbHLHZip relative DMSO was plotted against Example 1 concentration. B) Surface plasmon resonance (SPR) of MYC:MAX heterodimer formation assay. MAXbHLHZip was immobilized by an amino coupling procedure to a CM5 sensor chip. MYCbHLHZip pre-incubated with or without compound (as indicated) was injected over MAX for 180 seconds, allowed to dissociate for 240 seconds and regenerated. […] C) MYC binding response units (RU) plotted against Example 1 concentration from which an IC50 of Example 1 inhibition of MYC:MAX heterodimer formation is determined, summary of four experiments. […]
(§1) MST measures the movement of fluorescent labelled molecules in a microscopic temperature gradient. Changes in charge, size or of the hydration shell of the fluorescent molecule affects its migration in the temperature gradient, which can be detected by the fluorescence of the molecule (See Seidel et al., Microscale thermophoresis quantifies biomolecular interactions under previously challenging conditions, METHODS (2013)). […] Capillaries were scanned to measure initial fluorescence of compound. […]

[2] = test system: MYC-ER driven transcription of ODC1, RSG16, CR2 in U2OS-MYC-ER cells; assay: Assay 4 MYC target gene expression (RT-qPCR); format: cell-based
Method: FIG. 5: A) Inhibition of MYC transactivation of target genes (A) ODC1, (B) RSG16, and (C) CR2 as determined by RT-qPCR analysis, based on three biological experiments with three technical repeats each. U2OS-MYC-ER cells were treated with or without 100 nM 4-hydroxy-tamoxifen (HOT) for 4 hours, after which DMSO or Example 1 was added for 24 hours before total RNA was extraction. Fold changes in mRNA expression are presented relative to DMSO in non-HOT-treated cells after normalization to GAPDH, used as reference gene. Assay 4: Gene Expression To investigate the effect of the compounds on MYC-driven transcription, we utilized U2OS cells containing a MYC-estrogen receptor (MYC-ER) fusion protein, the activity of which is regulated by the ligand 4-hydroxytamoxifen (HOT). RT-qPCR was performed essentially as described in Bahram, F. et al. Interferon-gamma-induced p27KIP1 binds to and targets MYC for proteasome-mediated degradation. Oncotarget 7, 2837-2854, doi:10.18632/oncotarget.6693 (2016).

MAX:MAX (MAXbHLHZip) = biological target: T2, MAX:MAX (MAXbHLHZip) (Homo sapiens, UniProt P61244); assay: Assay 1A MST, labelled MAX pre-mixed with MAX instead of MYC; format: binding; settings: 1 μM MAX instead of MYC
T2 construct: Recombinant MYC bHLHZip and MAX bHLHZip proteins were titrated
T2 sequence (P61244 22-102): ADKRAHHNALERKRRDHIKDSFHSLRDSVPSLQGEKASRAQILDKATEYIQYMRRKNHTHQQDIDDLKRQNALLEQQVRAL
Method: FIG. 1: A) Microscale thermophoresis (MST) of fluorescently labeled MAX in a MYC:MAX heterodimer formation assay based on recombinant proteins. MST of labeled MAXbHLHZip after titration of Example 1 pre-incubated with 1 μM MYCbHLHZip, or with 1 μM MAXbHLHZip. Fluorescence intensity of labeled MAXbHLHZip relative DMSO was plotted against Example 1 concentration. B) Surface plasmon resonance (SPR) of MYC:MAX heterodimer formation assay. MAXbHLHZip was immobilized by an amino coupling procedure to a CM5 sensor chip. MYCbHLHZip pre-incubated with or without compound (as indicated) was injected over MAX for 180 seconds, allowed to dissociate for 240 seconds and regenerated. […] C) MYC binding response units (RU) plotted against Example 1 concentration from which an IC50 of Example 1 inhibition of MYC:MAX heterodimer formation is determined, summary of four experiments.
as §1

[3] = biological target: T3, MYC:MAX heterodimer (MYCbHLHZip over immobilized MAXbHLHZip) (Homo sapiens, UniProt P01106); assay: Assay 1B MYC:MAX SPR heterodimer formation assay; format: binding; settings: 100 nM MYCbHLHZip pre-mixed with compound, 25° C.
T3 construct: MYC:MAX heterodimer formation assay based on recombinant proteins
T3 sequence (P01106 368-449 limits assumed, one chain of several): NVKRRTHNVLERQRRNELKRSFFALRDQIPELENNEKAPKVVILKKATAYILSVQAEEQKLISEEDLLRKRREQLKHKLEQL
Method: FIG. 1: A) Microscale thermophoresis (MST) of fluorescently labeled MAX in a MYC:MAX heterodimer formation assay based on recombinant proteins. MST of labeled MAXbHLHZip after titration of Example 1 pre-incubated with 1 μM MYCbHLHZip, or with 1 μM MAXbHLHZip. Fluorescence intensity of labeled MAXbHLHZip relative DMSO was plotted against Example 1 concentration. B) Surface plasmon resonance (SPR) of MYC:MAX heterodimer formation assay. MAXbHLHZip was immobilized by an amino coupling procedure to a CM5 sensor chip. MYCbHLHZip pre-incubated with or without compound (as indicated) was injected over MAX for 180 seconds, allowed to dissociate for 240 seconds and regenerated. Reference surface (without MAXbHLHZip) subtracted sensorgrams are shown from one representative experiment. C) MYC binding response units (RU) plotted against Example 1 concentration from which an IC50 of Example 1 inhibition of MYC:MAX heterodimer formation is determined, summary of four experiments.
Assay 1B. Surface Plasmon Resonance (SPR)
The SPR method is a highly sensitive assay to determine the affinity between protein and ligand and to measure the kinetics of the interaction (see Handbook of Surface Plasmon Resonance 2nd edition, Richard B M Schasfoort (Editor), RSC 2017, ca. 500 p., hardcover, ISBN 978-1-78262-730-2). […]

T1 sequence (P01106 368-449 limits assumed, one chain of several): as above

Kd [1]: 4.3 µM | effect on labelled MAX thermophoresis when pre-mixed with MAX (MAX:MAX (MAXbHLHZip)): minor effects | IC50 [3]: 3.8 µM
SMILES: CCOc1ccc2nc3cc(/N=N/c4ccc(N)nc4N)ccc3c(N)c2c1 [Example 1, 3-((9-amino-7-ethoxyacridin-3-yl)diazenyl)pyridine-2,6-diamine sulphate hydrate]
inhibition of gene expression, CR2 gene ([2]; 10 μM): 100% | inhibition of gene expression, ODC1 gene ([2]; 10 μM): 100% | inhibition of gene expression, RSG16 gene ([2]; 10 μM): 68% | HOT-induced expression of all three MYC target genes ([2]; 24 hours): significantly reduced
